Molecules are shown by their SMILES. Several values for one entry are separate records, joined by “and”; a condition that tells them apart may be missing. Equal entries are not always repeated.

In one series the test system is P-388 leukemia. As to the kind of experiment: Mouse antitumor efficacy vs P-388 leukemia (Table B). To be noted: mouse, in vivo.
Series [1] concerns Lymphocyte Leukemia P-388. The series can be described thus: Survival time of mice inoculated i.p. with Lymphocyte Leukemia P-388, treated days 5, 9 and 13 (Table A). It counts as in vivo, mouse.
The test system of series [2] is RNA synthesis in L 1210 Cells. The series can be described thus: Inhibition of RNA synthesis in L 1210 Cells. It counts as cell-based, mouse. To be noted: Mus musculus, L1210, read-out: Leukemia L-1210 Cells Inhibition of Synthesis ED50, RNA.
A further series has as its system heart. As to conditions: some patients; cited from earlier work.
Series [3] concerns DNA synthesis in L 1210 Cells. As to the kind of experiment: Inhibition of DNA synthesis in L 1210 Cells. It counts as cell-based, mouse. As to conditions: Mus musculus, L1210, read-out: Leukemia L-1210 Cells Inhibition of Synthesis ED50, DNA.
Another series relates to mouse leukemia P388. To be noted: prior art, U.S. Pat. No. 4,301,277; cited from earlier work.
The test system of series [4] is tumors (colon cancer, melanoma). To be noted: cited from earlier work.

Regarding `COc1cccc2c1C(=O)c1c(O)c3c(c(O)c1C2=O)C[C@@](O)(C(=O)CO)C[C@@H]3O[C@H]1C[C@H](N)[C@H](O)[C@H](C)O1` [doxorubicin], the “Mouse Antitumor Efficacy at Optimum Dose, % T/C” value in the series with P-388 leukemia was 185%; in the series on P-388 leukemia (ip) it was 252% and 257% and > 285%. Also, the “Optimum Dose” value in the series on P-388 leukemia worked out at 10 mg/kg. Moreover, in series [1] (at 50 mg/kg (thiomorpholino) or 8 mg/kg (doxorubicin)), the “T/C vs mouse leukemia P388” value was determined as 160%. Also, the “dose required vs mouse leukemia P388” value in series [1] (dose for the T/C quoted) stood at 8 mg/kg. Moreover, the “Survival Time, % T/C” value in series [1] (mouse, in vivo) was 160%. Besides, the IC50 in series [2] was 580 nM; in series [3], 1500 nM. Also, the “heart damage in chronic treatment” value in the series on heart is on record as “irreversible heart damage that can be fatal if continued”. Also, the “T/C value against P388” value with mouse leukemia P388 is given as 160%. The “response of patients with some serious tumor types (colon cancer, melanoma)” value in series [4] is recorded as “essentially no patients with some serious tumor types (colon cancer, melanoma) respond”.

Values taken from US4585859A, “Analogues of morpholinyl daunorubicin and morpholinyl doxorubicin” (priority 1984, dated 1986).
